Experimental data taken from paper PMC4513294, “L-Asparaginase from Streptomyces griseus NIOT-VKMA29: optimization of process variables using factorial designs and molecular characterization of L-asparaginase gene” (Scientific Reports, 2015).

Molecular target: T1, L-asparaginase (ansA) (Streptomyces griseus, UniProt Q54237)
T1 construct: gene orf4; full-length ORF (987 bp, 328 residues, 33721 Da) in pQE30, expressed in E. coli M15(pREP4); unpurified expressed cells; 34 kDa band on SDS-PAGE
T1 sequence (Q54237 1-328): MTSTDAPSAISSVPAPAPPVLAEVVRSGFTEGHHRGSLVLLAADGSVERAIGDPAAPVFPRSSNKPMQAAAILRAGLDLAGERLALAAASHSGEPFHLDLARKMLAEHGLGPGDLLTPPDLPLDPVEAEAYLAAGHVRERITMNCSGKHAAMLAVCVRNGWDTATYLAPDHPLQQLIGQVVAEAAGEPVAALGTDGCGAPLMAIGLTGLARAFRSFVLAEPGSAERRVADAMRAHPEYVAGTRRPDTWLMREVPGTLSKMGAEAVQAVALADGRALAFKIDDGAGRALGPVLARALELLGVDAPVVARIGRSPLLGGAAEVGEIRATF
Test: ammonia release, Nesslerization
Assay type: cell-based
Conditions: recombinant E. coli M15 expressed cells compared with control cells; host background activity present

NC(=O)C[C@H](N)C(=O)O [L-asparagine]
ammonia release, Nesslerization: The expression of asparaginase biosynthetic gene was confirmed by Nesslerization assay
